Data on 4 compounds can be found in US9879303B2, “Chromogenic glucuronidase substrates and uses” (Glycosynth Limited, priority 2013, dated 2018).

Where a name gives a salt, the structure may show the parent alone.

What all share (type): cell-based
For experiment [1], the system named is E. coli expressing both β-D-glucuronidase and β-D-galactosidase. The experiment can be described thus: broth media in the presence of ONPG. The settings on record: ONPG 1.5 g/L, broth with FAC. The method, then:
The two indoxyl glucuronides used produce insoluble endpoints following hydrolysis, as does the CPS ID 3 medium. It was therefore necessary to test these two substrates on agar plates. In contrast, catechol-β-D-glucuronide (1) and DHN-β-D-glucuronide (2b) give much more soluble endpoints best suited to liquid media and were therefore tested in a broth medium. Each broth was prepared using proteose peptone (Oxoid, Basingstoke, UK) (2 g), NaCl (1 g) and FAC (100 mg) in DI water (180 mL). This mixture was autoclaved and cooled to room temperature before being dispensed into bijoux (100×1.8 mL). Catechol β-D-glucuronide CHA salt (1) or DHN-β-D-glucuronide CHA salt (2b) (60 mg) were each dissolved in water (20 mL) and filtered to sterilize before being aseptically dispensed into successive bijoux (0.2 mL) containing the broth solution. […]
Because many E. coli produce both β-D-glucuronidase and β-D-galactosidase, catechol-β-D-glucuronide (1) and DHN-β-D-glucuronide (2b) were tested as in the broth media described above but in the presence of o-nitrophenyl-β-D-galactoside (ONPG) (at a concentration of 1.5 g/L). […] With either substrate, the colour of these solutions of mixed chromogens could be very readily distinguished with the unaided eye from the yellow colour of those strains, such as E. cloacae, that produced β-D-galactosidase only. […]

For experiment [2], the system named is E. cloacae. The experiment can be described thus: screen of strains in broth medium containing FAC. More on the design: key: Red, Green, Black or Purple mean strong colour; Red, Green, Black or Purple mean strong colour; Red, Green, Black or Purple mean strong colour; Red, Green, Black or Purple mean strong colour; +/− means less colour than strong; Tr means a trace of colour, less than +/−; — means no colour.

Another experiment deals with E. faecalis NCTC 775. The experiment can be described thus: screen of strains on agar plates (CPS ID 3 or Columbia agar). To be noted: 37° C. 18 hours. The arrangement: key: Red, Green, Black or Purple mean strong colour; Red, Green, Black or Purple mean strong colour; Red, Green, Black or Purple mean strong colour; Red, Green, Black or Purple mean strong colour; +/− means less colour than strong; Tr means a trace of colour, less than +/−; — means no colour.

For experiment [3], the system named is E. cloacae. The experiment is described as above. The arrangement: key: Red, Green, Black or Purple mean strong colour; Red, Green, Black or Purple mean strong colour; Red, Green, Black or Purple mean strong colour; Red, Green, Black or Purple mean strong colour; +/− means less colour than strong; Tr means a trace of colour, less than +/−; — means no colour.
Setting [4] is: E. cloacae 260329R, 37° C. 18 hours.
[5] abbreviates: E. cloacae NCTC 11936, 37° C. 18 hours.

For `O=C(O)C1OC(Oc2ccccc2O)C(O)C(O)C1O` [Compound 1, Catechol β-D-Glucuronide CHA Salt], in experiment [1], the “colour of solutions in the presence of ONPG” value is “greyish-black solutions”. The colour result in the experiment on E. cloacae [2] (setting [4]) and in the experiment with E. cloacae [2] (setting [5]) was “—” each time.

On to `O=C(O)C1OC(Oc2cc3ccccc3cc2O)C(O)C(O)C1O` [Compound 2b, DHN-β-D-Glucuronide CHA Salt], for which the “colour of solutions in the presence of ONPG” value in experiment [1] is reported as “purple-brown solutions”. Also, the colour entry with E. cloacae [2] (setting [4]) and with E. cloacae [2] (setting [5]) was “—” each time.

As for `O=C(O)[C@H]1O[C@@H](Oc2c[nH]c3cc(Cl)ccc23)[C@H](O)[C@@H](O)[C@@H]1O` [Rose-β-D-glucuronide CHA salt, 6-chloro-3-indolyl β-D-glucuronide], the colour entry with E. faecalis NCTC 775, with E. cloacae [3] (setting [4]) and with E. cloacae [3] (setting [5]) was “—” each time.

On to `O=C(O)[C@H]1O[C@@H](Oc2c[nH]c3ccc(Br)c(Cl)c23)[C@H](O)[C@@H](O)[C@@H]1O` [X-β-D-glucuronide CHA salt, 5-bromo-4-chloro-3-indolyl β-D-glucuronide], for which the colour result in the experiment with E. faecalis NCTC 775, in the experiment with E. cloacae [3] (setting [4]) and in the experiment with E. cloacae [3] (setting [5]) was “—” each time.
